Measurements taken from patent publication US11076594B2, “Pyrazolone compound or salt thereof, preparation method therefor, herbicide composition and use thereof” (QINGDAO KINGAGROOT CHEMICAL COMPOUNDS CO., LTD., priority 2015, dated 2021).

Assays:
Format in all cases: in vivo
Settings in all cases: post-emergence spray at 4-5 leaf stage, 250 g/ha active ingredient with 450 kg/ha water, rated after 3 weeks in greenhouse
rice = test: post-emergence stage experiment, crop (Table 1); parameters: key: Level 10: completely dead; Level 9: above 95% growth control rate; Level 8: above 90% growth control rate; Level 7: above 80% growth control rate; Level 6: above 70% growth control rate; Level 5: above 60% growth control rate; Level 4: above 50% growth control rate; Level 3: above 20% growth control rate; Level 2: 5%-20% growth control rate; Level 1: below 5% growth control rate
How it was run: (§1)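 Greenhouse pot test; foliar spray at 4-5 leaf stage; acetone + Tween 80 + water formulation; 3 wk post-treatment fresh-weight control rate.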

wheat = test: post-emergence stage experiment, crop (Table 1)
How it was run: as §1

corn = test: post-emergence stage experiment, crop (Table 1)
How it was run: as §1

crab grass = test: weed control effect in post-emergence stage (Table 1); parameters: key: Level 10: completely dead; Level 9: above 95% growth control rate; Level 8: above 90% growth control rate; Level 7: above 80% growth control rate; Level 6: above 70% growth control rate; Level 5: above 60% growth control rate; Level 4: above 50% growth control rate; Level 3: above 20% growth control rate; Level 2: 5%-20% growth control rate; Level 1: below 5% growth control rate
How it was run: as §1

echinochloa = test: as above; parameters: key: Level 10: completely dead; Level 9: above 95% growth control rate; Level 8: above 90% growth control rate; Level 7: above 80% growth control rate; Level 6: above 70% growth control rate; Level 5: above 60% growth control rate; Level 4: above 50% growth control rate; Level 3: above 20% growth control rate; Level 2: 5%-20% growth control rate; Level 1: below 5% growth control rate
How it was run: as §1

rorippa indica = test: as above; parameters: key: Level 10: completely dead; Level 9: above 95% growth control rate; Level 8: above 90% growth control rate; Level 7: above 80% growth control rate; Level 6: above 70% growth control rate; Level 5: above 60% growth control rate; Level 4: above 50% growth control rate; Level 3: above 20% growth control rate; Level 2: 5%-20% growth control rate; Level 1: below 5% growth control rate
How it was run: as §1

bidens bipinnata = test: as above; parameters: key: Level 10: completely dead; Level 9: above 95% growth control rate; Level 8: above 90% growth control rate; Level 7: above 80% growth control rate; Level 6: above 70% growth control rate; Level 5: above 60% growth control rate; Level 4: above 50% growth control rate; Level 3: above 20% growth control rate; Level 2: 5%-20% growth control rate; Level 1: below 5% growth control rate
How it was run: as §1

Indian mallow = test: as above; parameters: key: Level 10: completely dead; Level 9: above 95% growth control rate; Level 8: above 90% growth control rate; Level 7: above 80% growth control rate; Level 6: above 70% growth control rate; Level 5: above 60% growth control rate; Level 4: above 50% growth control rate; Level 3: above 20% growth control rate; Level 2: 5%-20% growth control rate; Level 1: below 5% growth control rate
How it was run: as §1

foxtail = test: as above; parameters: key: Level 10: completely dead; Level 9: above 95% growth control rate; Level 8: above 90% growth control rate; Level 7: above 80% growth control rate; Level 6: above 70% growth control rate; Level 5: above 60% growth control rate; Level 4: above 50% growth control rate; Level 3: above 20% growth control rate; Level 2: 5%-20% growth control rate; Level 1: below 5% growth control rate
How it was run: as §1

| SMILES | effect on crop, Rice (level) (rice) | effect on crop, Wheat (level) (wheat) | effect on crop, Corn (level) (corn) | weed control effect, Crab grass (level) (crab grass) | weed control effect, Echinochloa (level) (echinochloa) | weed control effect, Rorippa indica (level) (rorippa indica) | weed control effect, Bidens bipinnata (level) (bidens bipinnata) | weed control effect, Indian mallow (level) (Indian mallow) | weed control effect, Green foxtail (level) (foxtail) |
| --- | --- | --- | --- | --- | --- | --- | --- | --- | --- |
| Cn1ncc(C(=O)c2ccc(C(F)(F)F)c(N3CCCCC3=O)c2Cl)c1O [Compound 029] | 1 (Level 1: below 5% growth control rate) | 3 (Level 3: above 20% growth control rate) | 7 (Level 7: above 80% growth control rate) | 7 (Level 7: above 80% growth control rate) | 5 (Level 5: above 60% growth control rate) | 7 (Level 7: above 80% growth control rate) | 7 (Level 7: above 80% growth control rate) | 7 (Level 7: above 80% growth control rate) | 9 (Level 9: above 95% growth control rate) |
| CCc1nn(CC)c(O)c1C(=O)c1ccc(C(F)(F)F)c(N2CCCCC2=O)c1Cl [Compound 112] | 7 (Level 7: above 80% growth control rate) | 3 (Level 3: above 20% growth control rate) | 3 (Level 3: above 20% growth control rate) | 6 (Level 6: above 70% growth control rate) | 10 | 2 (Level 2: 5%-20% growth control rate) | 1 (Level 1: below 5% growth control rate) | 5 (Level 5: above 60% growth control rate) | 5 (Level 5: above 60% growth control rate) |
| CCc1nn(CC)c(OC(=O)c2cn(C)nc2C)c1C(=O)c1ccc(C(F)(F)F)c(N2CCCCCC2=O)c1Cl [Compound 123] | 7 (Level 7: above 80% growth control rate) | 1 (Level 1: below 5% growth control rate) | 4 (Level 4: above 50% growth control rate) | 3 (Level 3: above 20% growth control rate) | 10 | 3 (Level 3: above 20% growth control rate) | 7 (Level 7: above 80% growth control rate) | 10 | 6 (Level 6: above 70% growth control rate) |
| CCc1nn(C)c(O)c1C(=O)c1ccc(C(F)(F)F)c(N2CCCC2=O)c1Cl [Compound 100] | 10 | 2 (Level 2: 5%-20% growth control rate) | 2 (Level 2: 5%-20% growth control rate) | 3 (Level 3: above 20% growth control rate) | 10 | 10 | 9 (Level 9: above 95% growth control rate) | 9 (Level 9: above 95% growth control rate) | 10 |
| Cn1ncc(C(=O)c2ccc(C(F)(F)F)c(-n3cccn3)c2Cl)c1O [Compound 064] | 2 (Level 2: 5%-20% growth control rate) | 3 (Level 3: above 20% growth control rate) | 7 (Level 7: above 80% growth control rate) | 7 (Level 7: above 80% growth control rate) | 5 (Level 5: above 60% growth control rate) | 9 (Level 9: above 95% growth control rate) | 7 (Level 7: above 80% growth control rate) | 10 | 10 |
| CCc1nn(CC)c(O)c1C(=O)c1ccc(C(F)(F)F)c(-n2cc(C)cn2)c1Cl [Compound 142] | 7 (Level 7: above 80% growth control rate) | 2 (Level 2: 5%-20% growth control rate) | 3 (Level 3: above 20% growth control rate) | 2 (Level 2: 5%-20% growth control rate) | 10 | 3 (Level 3: above 20% growth control rate) | 5 (Level 5: above 60% growth control rate) | 5 (Level 5: above 60% growth control rate) | 6 (Level 6: above 70% growth control rate) |
| Cc1nn(C)c(OC(=O)c2cnn(C)c2)c1C(=O)c1ccc(C(F)(F)F)c(-n2cccn2)c1Cl [Compound 070] | 3 (Level 3: above 20% growth control rate) | 0 | 3 (Level 3: above 20% growth control rate) | 4 (Level 4: above 50% growth control rate) | 6 (Level 6: above 70% growth control rate) | 5 (Level 5: above 60% growth control rate) | 5 (Level 5: above 60% growth control rate) | 10 | 9 (Level 9: above 95% growth control rate) |
